{"source": "patent US6943185B2", "about": "“Use of 2-methyl-thiazolidine-2,4-dicarboxylic acid and/or physiologically compatible salts thereof for producing a medicament for treating cancers” (Trommsdorff GmbH & Co. KG, priority 2000, dated 2005)", "key": {"[1]": {"details": "cited from earlier work"}, "animal tumor models": {"tested_on": "animal tumor models", "assay": "Animal tumor models (skin papillomas, mammary adenocarcinomas, tracheal cancer, pulmonary adenocarcinomas, colon carcinomas, bladder cancer)", "type": "in vivo", "details": "several animal tumor models in mouse, rat, hamster", "experimental": "These studies were conducted in several animal tumor models. Test systems used were the mouse, the rat, and the hamster. The objects of study included skin papillomas, mammary adenocarcinomas, tracheal cancer, pulmonary adenocarcinomas as well as colon carcinomas and bladder cancer."}, "[2]": {"tested_on": "reduced glutathione (GSH) in the hepatic tissue", "assay": "Effect of 2-MTDC on reduced glutathione (GSH) in the hepatic tissue in mice", "type": "in vivo", "details": "mouse liver; for Glutathione (GSH), % of the reference value: reference 0.9% NaCl"}, "[3]": {"details": "pulmonary cancer patients treated with epirubicin and simultaneously NAC; cited from earlier work"}, "[4]": {"details": "2-MTDC 1.2 mmol/kg intraperitoneally, 8 hours after injection"}, "[5]": {"details": "2-MTDC 2.4 mmol/kg intraperitoneally, 4 hours after injection"}}}
{"compound": "CC1NC(C(=O)O)CS1", "note": "(stereo not shown)", "values": [{"measurement": "Stability under physiological conditions", "setting": "[1]", "result": "spontaneously decomposes into its components under physiological conditions"}]}
{"compound": "CC1(C(=O)O)NC(C(=O)O)CS1", "note": "(stereo not shown) [2-MTDC, 2-methyl-thiazolidine-2,4-dicarboxylic acid]", "values": [{"measurement": "Effect on the advance of cancerous diseases", "setting": "animal tumor models", "result": "can slow down or even stop the advance of cancerous diseases"}, {"measurement": "Glutathione (GSH), % of the reference value", "setting": "[2]; 2-MTDC 1.2 mmol/kg intraperitoneally, 1 hour after injection", "result": 117.5, "unit": "%"}, {"measurement": "Glutathione (GSH), % of the reference value", "setting": "[2]; 2-MTDC 1.2 mmol/kg intraperitoneally, 4 hours after injection", "result": 87.2, "unit": "%"}, {"measurement": "Glutathione (GSH), mean ± SD", "setting": "[2]; [4]", "result": "6.48 ± 0.67", "unit": "μmol/g wet weight"}, {"measurement": "Glutathione (GSH), % of the reference value", "setting": "[2]; [4]", "result": 108.5, "unit": "%"}, {"measurement": "Glutathione (GSH), % of the reference value", "setting": "[2]; 2-MTDC 1.2 mmol/kg intraperitoneally, 12 hours after injection", "result": 112.0, "unit": "%"}, {"measurement": "Glutathione (GSH), % of the reference value", "setting": "[2]; 2-MTDC 2.4 mmol/kg intraperitoneally, 1 hour after injection", "result": 127.6, "unit": "%"}, {"measurement": "Glutathione (GSH), mean ± SD", "setting": "[2]; [5]", "result": "5.76 ± 0.42", "unit": "μmol/g wet weight"}, {"measurement": "Glutathione (GSH), % of the reference value", "setting": "[2]; [5]", "result": 90.3, "unit": "%"}, {"measurement": "Glutathione (GSH), % of the reference value", "setting": "[2]; 2-MTDC 2.4 mmol/kg intraperitoneally, 8 hours after injection", "result": 112.0, "unit": "%"}, {"measurement": "Glutathione (GSH), % of the reference value", "setting": "[2]; 2-MTDC 2.4 mmol/kg intraperitoneally, 12 hours after injection", "result": 154.5, "unit": "%"}]}
{"compound": "CC(=O)N[C@@H](CS)C(=O)O", "note": "[N-acetylcysteine]", "values": [{"measurement": "Effect on undesirable cardiotoxic effects of epirubicin", "setting": "[3]", "result": "undesirable cardiotoxic effects of epirubicin could be prevented"}]}
